Measurements taken from ChEMBL document CHEMBL1641475, “Synthesis, hypolipidemic and hypoglycemic activity of some novel 2-(4-(2-substituted aminothiazole-4-yl) phenoxy)-2-methyl propanoic acid derivatives” (2011).

Assays:
Format in all cases: functional
[1] = tested on: Rattus norvegicus; experiment: Antihyperlipidemic activity in high fat diet-induced hyperlipidemic Sprague-Dawley rat assessed as blood triglyceride level at 250 mg/kg, po after 7 days (reference value: 135 +/- 1.592 mg/dl)
[2] = tested on: Rattus norvegicus; experiment: Antihyperlipidemic activity in high fat diet-induced hyperlipidemic Sprague-Dawley rat assessed as blood VLDL level at 250 mg/kg, po after 7 days (reference value: 27 +/- 0.3183 mg/dl)
[3] = tested on: Rattus norvegicus; experiment: Antihyperlipidemic activity in high fat diet-induced hyperlipidemic Sprague-Dawley rat assessed as blood LDL level at 250 mg/kg, po after 7 days (reference value: 75.5 +/- 1.24 mg/dl)
[4] = tested on: Rattus norvegicus; experiment: Antihyperlipidemic activity in high fat diet-induced hyperlipidemic Sprague-Dawley rat assessed as blood HDL level at 250 mg/kg, po after 7 days (reference value: 19 +/- 0.5774 mg/dl)
[5] = tested on: Rattus norvegicus; experiment: Antihyperlipidemic activity in high fat diet-induced hyperlipidemic Sprague-Dawley rat assessed as blood cholesterol level at 250 mg/kg, po after 7 days (reference value: 121.5 +/- 1.335 mg/dl)
[6] = tested on: Rattus norvegicus; experiment: Antihyperglycemic activity in high fat diet-induced hyperglycemic Sprague-Dawley rat assessed as blood glucose level at 250 mg/kg, po after 7 days (reference value: 106.3 +/- 0.6666 mg/dl)

Structure (SMILES)	Activity [1] [mg/dL]	Activity [2] [mg/dL]	Activity [3] [mg/dL]	Activity [4] [mg/dL]	Activity [5] [mg/dL]	Activity [6] [mg/dL]
CC(=O)Nc1nc(-c2ccc(OC(C)(C)C(=O)O)cc2)cs1	80.5	16.1	60.63	32.67	108.3	81.5
CC(C)(Oc1ccc(-c2csc(NC(=O)CCl)n2)cc1)C(=O)O	85.5	17.1	59.53	34.33	111.5	72.33
CC(C)(Oc1ccc(-c2csc(NC(=O)c3ccccc3)n2)cc1)C(=O)O	85.5	15.47	43.67	37	96.5	74.5
CC(C)(Oc1ccc(-c2csc(NCC(=O)c3ccc(Cl)cc3)n2)cc1)C(=O)O	77.33	16.23	61.18	32.5	108.3	74.33
CC(C)(Oc1ccc(-c2csc(NC(=O)CC(=O)Cl)n2)cc1)C(=O)O	81.17	16.53	67.75	35.83	116.5	66.67
CC(C)(Oc1ccc(-c2csc(NC(=O)C(=O)Cl)n2)cc1)C(=O)O	82.67	15.47	49.35	32.5	96.5	75.17
CC(C)OC(=O)C(C)(C)Oc1ccc(C(=O)c2ccc(Cl)cc2)cc1 [FENOFIBRATE]	73.17	14.67	55.33	33.5	105.2	70.5
